The target of one experiment is T1, IDH2 R172K (Homo sapiens, UniProt P48735, R172K).
T1 sequence (P48735 40-452 R172K): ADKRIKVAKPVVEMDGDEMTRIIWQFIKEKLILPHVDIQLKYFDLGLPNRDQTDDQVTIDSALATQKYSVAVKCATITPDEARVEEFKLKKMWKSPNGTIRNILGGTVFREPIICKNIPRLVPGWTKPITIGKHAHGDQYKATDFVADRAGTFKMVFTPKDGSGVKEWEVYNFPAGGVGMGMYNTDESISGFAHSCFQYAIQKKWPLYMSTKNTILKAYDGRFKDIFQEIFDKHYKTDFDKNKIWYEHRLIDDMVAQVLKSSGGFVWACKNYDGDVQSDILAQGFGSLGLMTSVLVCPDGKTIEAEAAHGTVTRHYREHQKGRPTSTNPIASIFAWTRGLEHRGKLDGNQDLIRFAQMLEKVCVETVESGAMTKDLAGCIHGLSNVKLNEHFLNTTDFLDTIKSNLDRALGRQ
As to the kind of experiment: IDH2 R172K enzymatic assay (NADPH cofactor depletion, diaphorase/resazurin readout). Type of experiment: biochemical. As to conditions: read-out: Enz R172K. The gist of the method: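 Residual NADPH is read out as resorufin fluorescence after quenching with 36 μg/ml diaphorase and 60 μM resazurin in stop mix. The stop follows a 1 h room-temperature reaction started by a substrate mix of NADPH (50 μM) and α-KG (6.3 mM), with compound preincubated with enzyme for 1 h beforehand.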

In another experiment the target is T2, IDH2 R140Q (Homo sapiens, UniProt P48735, R140Q).
T2 sequence (P48735 40-452 R140Q): T1 sequence (P48735 40-452 R172K) with R101Q, K133R
Briefly: IDH2 R140Q enzymatic assay (cofactor depletion, similar format). The class given is biochemical. To be noted: read-out: Enz R140Q.

Experiment [1] deals with U87MG pLVX-IDH2 R140Q-neo cells. Briefly: U87MG pLVX-IDH2 R140Q-neo cell based assay, 2-HG in media by LC-MS at 48 hours. As to conditions: Homo sapiens, U-87 MG. The gist of the method: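 2-HG secreted into the medium was measured by LC-MS after 48 h of compound treatment (0.2% DMSO final) of U87MG pLVX-IDH2 R140Q-neo cells in DMEM/10% FBS. The same wells were assayed at 72 h by CellTiter-Glo luminescence for effects on growth.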

Positions count from the first letter of the chain named.

With `CC(C)Nc1nc(Nc2ccnc(C3(O)CC3)c2)nc(-c2cccc(C(F)(F)F)n2)n1` [Compound 674, 1-{4-[4-Isopropylamino-6-(6-trifluoromethyl-pyridin-2-yl)-[1,3,5]triazin-2-ylamino]-pyridin-2-yl}-cyclopropanol], the IC50 at IDH2 R172K is 0.1 to 1 µM; at IDH2 R140Q it was 0.1 to 1 µM; in experiment [1], less than 0.1 µM.
As to `CC(C)Nc1nc(Nc2ccnc(C(F)F)c2)nc(-c2cccc(C(C)(F)F)n2)n1` [Compound 675, 6-[6-(1,1-Difluoro-ethyl)-pyridin-2-yl]-N-(2-difluoromethyl-pyridin-4-yl)-N′-isopropyl-[1,3,5]triazine-2,4-diamine], the IC50 on IDH2 R172K is less than 0.1 µM; at IDH2 R140Q, 0.1 to 1 µM; in experiment [1], less than 0.1 µM.
On to `CC(C)Nc1nc(Nc2ccnc(CF)c2)nc(-c2cccc(C(F)(F)F)n2)n1` [Compound 676, N-(2-Fluoromethyl-pyridin-4-yl)-N′-isopropyl-6-(6-trifluoromethyl-pyridin-2-yl)-[1,3,5]triazine-2,4-diamine], for which the IC50 was less than 0.1 µM at IDH2 R172K, 0.1 to 1 µM on IDH2 R140Q and less than 0.1 µM in experiment [1].
As for `CC(C)Nc1nc(Nc2ccnc(C(C)(C)C#N)c2)nc(-c2cccc(C(C)(F)F)n2)n1` [Compound 677, 2-(4-{4-[6-(1,1-Difluoro-ethyl)-pyridin-2-yl]-6-isopropylamino-[1,3,5]triazin-2-ylamino}-pyridin-2-yl)-2-methyl-propionitrile], the IC50 on IDH2 R172K was less than 0.1 µM; on IDH2 R140Q, 0.1 to 1 µM; in experiment [1] it was less than 0.1 µM.
As for `CC(C)(O)CNc1nc(Nc2ccnc(C(C)(C)C#N)c2)nc(-c2cccc(C(F)(F)F)n2)n1` [Compound 678, 2-{4-[4-(2-Hydroxy-2-methyl-propylamino)-6-(6-trifluoromethyl-pyridin-2-yl)-[1,3,5]triazin-2-ylamino]-pyridin-2-yl}-2-methyl-propionitrile], the IC50 at IDH2 R172K was 0.1 to 1 µM; at IDH2 R140Q it was 1 to 10 µM; in experiment [1] it was less than 0.1 µM.
For `COC(=O)Nc1cccc(-c2nc(Nc3ccnc(C(F)(F)F)c3)nc(NC(C)C)n2)n1` [Compound 679, Methyl(6-(4-(isopropylamino)-6-((2-(trifluoromethyl)pyridin-4-yl)amino)-1,3,5-triazin-2-yl)pyridin-2-yl)carbamate], the IC50 on IDH2 R172K is more than 10 µM; at IDH2 R140Q, 0.1 to 1 µM; in experiment [1], 0.1 to 1 µM.
As to `CC(C)Nc1nc(Nc2ccnc(C(F)(F)F)c2)nc(-c2cccc(N)n2)n1` [Compound 687, 6-(6-aminopyridin-2-yl)-N2-isopropyl-N4-(2-(trifluoromethyl)pyridin-4-yl)-1,3,5-triazine-2,4-diamine], the IC50 on IDH2 R172K was less than 0.1 µM; on IDH2 R140Q, 0.1 to 1 µM; in experiment [1], less than 0.1 µM.
For the compound `CC(C)(C)CNc1nc(Nc2ccnc(C(F)(F)F)c2)nc(-c2cccc(N)n2)n1` [Compound 689, 6-(6-aminopyridin-2-yl)-N2-neopentyl-N4-(2-(trifluoromethyl)pyridin-4-yl)-1,3,5-triazine-2,4-diamine], the IC50 on IDH2 R172K was less than 0.1 µM; on IDH2 R140Q, 0.1 to 1 µM; in experiment [1], less than 0.1 µM.
In the case of `CC(C)CNc1nc(Nc2ccnc(C(F)(F)F)c2)nc(-c2cccc(N)n2)n1` [Compound 690, 6-(6-aminopyridin-2-yl)-N2-isobutyl-N4-(2-(trifluoromethyl)pyridin-4-yl)-1,3,5-triazine-2,4-diamine], the IC50 on IDH2 R172K is less than 0.1 µM; at IDH2 R140Q it was 0.1 to 1 µM; in experiment [1], less than 0.1 µM.
Consider `CC(C)(O)CNc1nc(Nc2cc(F)cc(F)c2)nc(-c2cccc(N)n2)n1` [Compound 691, 1-(4-(6-aminopyridin-2-yl)-6-(3,5-difluorophenylamino)-1,3,5-triazin-2-ylamino)-2-methylpropan-2-ol], for which the IC50 at IDH2 R172K was 0.1 to 1 µM; on IDH2 R140Q, 0.1 to 1 µM; in experiment [1] it was less than 0.1 µM.
Take `CC1(Nc2nc(Nc3ccnc(C(F)(F)F)c3)nc(-c3cccc(N)n3)n2)CC1` [Compound 692, 6-(6-aminopyridin-2-yl)-N2-(1-methylcyclopropyl)-N4-(2-(trifluoromethyl)pyridin-4-yl)-1,3,5-triazine-2,4-diamine]: the IC50 was less than 0.1 µM on IDH2 R172K, 0.1 to 1 µM at IDH2 R140Q and less than 0.1 µM in experiment [1].
For the compound `CC1(Nc2nc(Nc3cc(F)cc(F)c3)nc(-c3cccc(N)n3)n2)CC1` [Compound 693, 6-(6-aminopyridin-2-yl)-N2-(3,5-difluorophenyl)-N4-(1-methylcyclopropyl)-1,3,5-triazine-2,4-diamine], the IC50 is less than 0.1 µM on IDH2 R172K, 0.1 to 1 µM on IDH2 R140Q and less than 0.1 µM in experiment [1].
For `CC(Nc1nc(Nc2ccnc(C(F)(F)F)c2)nc(-c2cccc(N)n2)n1)C(F)(F)F` (stereo not drawn) [Compound 694, 6-(6-aminopyridin-2-yl)-N2-(2-(trifluoromethyl)pyridin-4-yl)-N4-(1,1,1-trifluoropropan-2-yl)-1,3,5-triazine-2,4-diamine], the IC50 is less than 0.1 µM on IDH2 R172K, 0.1 to 1 µM on IDH2 R140Q and less than 0.1 µM in experiment [1].
On to `CC(C)(C)Nc1nc(Nc2ccnc(C(F)(F)F)c2)nc(-c2cccc(N)n2)n1` [Compound 695, 6-(6-aminopyridin-2-yl)-N2-tert-butyl-N4-(2-(trifluoromethyl)pyridin-4-yl)-1,3,5-triazine-2,4-diamine], for which the IC50 is less than 0.1 µM at IDH2 R172K, 0.1 to 1 µM on IDH2 R140Q and less than 0.1 µM in experiment [1].
With `CC(C)Nc1nc(Nc2ccnc(C(C)(F)F)c2)nc(-c2cccc(N)n2)n1` [Compound 696, 6-(6-aminopyridin-2-yl)-N2-(2-(1,1-difluoroethyl)pyridin-4-yl)-N4-isopropyl-1,3,5-triazine-2,4-diamine], the IC50 was 0.1 to 1 µM on IDH2 R172K, 0.1 to 1 µM at IDH2 R140Q and less than 0.1 µM in experiment [1].
Regarding `CC(=O)Nc1cccc(-c2nc(Nc3ccnc(C(F)(F)F)c3)nc(NC(C)C)n2)n1` [Compound 697, N-(6-(4-(isopropylamino)-6-(2-(trifluoromethyl)pyridin-4-ylamino)-1,3,5-triazin-2-yl)pyridin-2-yl)acetamide], the IC50 on IDH2 R172K lay in the range of 1 to 10 µM; at IDH2 R140Q, 0.1 to 1 µM; in experiment [1], 0.1 to 1 µM.
Take `CC(C)(C)Nc1nc(Nc2cc(F)cc(F)c2)nc(-c2cccc(N)n2)n1` [Compound 698, 6-(6-aminopyridin-2-yl)-N2-(tert-butyl)-N4-(3,5-difluorophenyl)-1,3,5-triazine-2,4-diamine]: the results for the IC50 (at IDH2 R172K; at IDH2 R140Q; in experiment [1]) were less than 0.1 µM, 0.1 to 1 µM and less than 0.1 µM, respectively.
Take `Nc1cccc(-c2nc(NCC3CC3)nc(Nc3cc(F)cc(F)c3)n2)n1` [Compound 699, 6-(6-aminopyridin-2-yl)-N2-(cyclopropylmethyl)-N4-(3,5-difluorophenyl)-1,3,5-triazine-2,4-diamine]: the IC50 on IDH2 R172K was less than 0.1 µM; on IDH2 R140Q, 0.1 to 1 µM; in experiment [1], less than 0.1 µM.

The values are drawn from patent publication US9512107B2, “Therapeutically active compositions and their methods of use” (Agios Pharmaceuticals, Inc., priority 2012, dated 2016).
